Where a name gives a salt, the structure may show the parent alone.
Legend:
[1] = test system: Caenorhabditis elegans N2; assay: lowest effective concentration for larval growth inhibition (size below effect threshold); higher = less potent; conditions: exposure time 48 h
Outline: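 Chemical exposure ran for 48 h at 20°C: 50 C. elegans N2 L1 larvae per 96-well in K-medium with killed bacteria, 1% DMSO and 0.5, 1, 5, 10, 50, 100 or 200 µM chemical. Extinction of each worm, read as size on the Biosort, was log-transformed and averaged by well. The lowest effective concentration is the first dose whose plate-adjusted mean size is below a fixed value and remains so at all higher doses; the value is 5.665.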

[2] = test system: Caenorhabditis elegans N2; assay: mean nematode size ln(EXT) after 48 h, plate-adjusted (DMSO control set to 6) (ln(EXT), control-adjusted); higher = larger nematodes / less growth inhibition; conditions: exposure time 48 h
Outline: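 In K-medium with killed OP50, 1% DMSO and 0.5–200 µM chemical, synchronised N2 L1 larvae of C. elegans (50 per well) grew for 48 h at 20°C. Extinction was read for every worm on the Biosort, with debris removed by a growth model. Natural-log values averaged per well gave mean size, which was corrected per plate by subtracting the vehicle control mean and adding 6.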

SMILES	lowest effective concentration [1]	mean nematode size ln(EXT) (ln) ([2]; 0.5 µM)	mean nematode size ln(EXT) (ln) ([2]; 1 µM)	mean nematode size ln(EXT) (ln) ([2]; 5 µM)	mean nematode size ln(EXT) (ln) ([2]; 10 µM)	mean nematode size ln(EXT) (ln) ([2]; 50 µM)	mean nematode size ln(EXT) (ln) ([2]; 100 µM)	mean nematode size ln(EXT) (ln) ([2]; 200 µM)
Cc1nc(C)nc(N2C[C@@H](C)N(c3ccnc([C@@H](C)O)n3)[C@@H](C)C2)n1	> 200 µM	5.83	5.77	5.75	5.69	5.71	5.7	5.85
Cc1ccccc1[N+](=O)[O-] [2-Nitrotoluene]	> 200 µM	5.85	5.89	6.04	5.77	5.91	5.76	5.7
Nc1nc(Cl)nc2c1ncn2[C@H]1C[C@H](O)[C@@H](CO)O1 [2-Chloro-2'-deoxyadenosine]	> 200 µM	5.92	5.87	5.91	5.87	5.88	5.88	5.7
COc1cc(C=O)ccc1O [4-Hydroxy-3-methoxy-benzaldehyde]	> 200 µM	5.83	5.83	5.77	5.77	5.69	5.84	5.8
Oc1cc(Cl)c(Cl)cc1Cl [2,4,5-Trichlorophenol]	> 200 µM	5.83	5.83	5.83	5.78	5.77	3.41	5.81
CCOC(=O)c1ccc(O)cc1 [Ethylparaben]	> 200 µM	5.98	5.82	5.93	5.81	5.84	5.84	5.74
C[C@](N)(Cc1ccc(O)c(O)c1)C(=O)O [(-)-3-(3,4-Dihydroxyphenyl)-2-methyl-L-alanine sesquihydrate]	> 200 µM	5.88	5.88	5.89	5.89	5.88	5.87	5.85
COc1cnc(OC)n2nc(NS(=O)(=O)c3c(OCC(F)F)cccc3C(F)(F)F)nc12 [Penoxsulam]	> 200 µM	6.17	6.06	5.98	6.03	6.01	6.02	5.72
O=c1[nH]cnc2c1ncn2[C@H]1CC[C@@H](CO)O1 [Didanosine]	> 200 µM	5.88	5.86	5.85	5.84	5.89	5.96	5.76
COCC(=O)N(c1c(C)cccc1C)C(C)C(=O)OC (stereo not drawn) [Metalaxyl]	> 200 µM	6.15	6.19	6.16	6	6.14	6.18	5.98
C=CC(=O)NCNC(=O)C=C [N,N'-Methylenebis(acrylamide)]	> 200 µM	6.06	6.06	6.06	6.01	6	6.05	5.83
O=C(N[C@H]1CN2CCC1CC2)c1ccc2c(c1)OCCO2	> 200 µM	5.82	5.83	5.8	5.8	5.81	5.81	5.67
COC(=O)c1ccc(O)cc1 [Methylparaben]	> 200 µM	6.02	5.99	5.95	6.11	6.02	6.06	5.7
CN(Cc1cnc2nc(N)nc(N)c2n1)c1ccc(C(=O)N[C@@H](CCC(=O)O)C(=O)O)cc1 [Methotrexate]	> 200 µM	5.83	5.86	5.81	5.85	5.84	5.82	5.75
Cc1cc(O)ccc1Cl [4-Chloro-3-methylphenol]	> 200 µM	5.83	5.8	5.79	5.82	5.85	5.78	5.68
CC(C)(C)c1ccccc1 [tert-Butylbenzene]	> 200 µM	5.94	6.02	6.07	6.05	6.22	6.12	5.79
COP(=O)(NC(C)=O)SC (stereo not drawn) [Acephate]	> 200 µM	5.69	5.74	5.76	5.69	5.85	5.77	5.99
C/C=C\c1ccc(O)c(OC)c1 [Isoeugenol]	> 200 µM	5.87	5.92	5.95	6.01	5.87	5.85	5.88
CCCc1cc(=O)[nH]c(=S)[nH]1 [6-Propyl-2-thiouracil]	> 200 µM	5.8	5.84	5.82	5.91	5.8	5.88	5.74

SMILES	lowest effective concentration [1]	mean nematode size ln(EXT) (ln) ([2]; 0.5 µM)	mean nematode size ln(EXT) (ln) ([2]; 1 µM)	mean nematode size ln(EXT) (ln) ([2]; 5 µM)	mean nematode size ln(EXT) (ln) ([2]; 10 µM)	mean nematode size ln(EXT) (ln) ([2]; 50 µM)	mean nematode size ln(EXT) (ln) ([2]; 100 µM)	mean nematode size ln(EXT) (ln) ([2]; 200 µM)
O=C1NC(=O)C(c2ccccc2)(c2ccccc2)N1 [5,5-Diphenylhydantoin]	> 200 µM	5.94	5.99	5.92	5.94	5.91	5.88	5.78
CN(C)C=O [N,N-Dimethylformamide]	> 200 µM	5.86	5.92	5.88	5.84	6.01	5.79	5.78
O=c1ccc(=O)[nH][nH]1 [Maleic hydrazide]	> 200 µM	6.04	5.94	5.94	5.96	5.96	5.9	6.03
Cn1ccnc1S [Methimazole]	> 200 µM	5.77	5.89	5.88	5.83	5.91	5.9	5.95
O=P(OCCCl)(OCCCl)OCCCl [Tris(2-chloroethyl) phosphate]	> 200 µM	5.87	5.82	5.89	5.86	5.86	5.87	5.77
O=C(O)c1ccccc1C(=O)OCc1ccccc1 [Benzyl hydrogen phthalate]	> 200 µM	5.72	5.73	5.79	5.84	5.73	5.67	5.74
COC(=O)CCC(=O)OC [Dimethyl succinate]	> 200 µM	5.88	5.94	5.85	6.11	5.84	5.87	5.96
Cc1ccc(C(C)C)cc1 [p-Cymene]	> 200 µM	5.73	5.99	6.14	6.05	6.08	6.06	5.92
c1ccc2occc2c1 [2,3-Benzofuran]	> 200 µM	6.06	6.1	6.03	6.13	6.02	6.03	5.78
CCOC(=O)CC(O)(CC(=O)OCC)C(=O)OCC [Triethyl citrate]	> 200 µM	6.01	5.99	6.04	6.03	6.03	6.08	5.71
C=CN1CCCC1=O [N-Vinyl-2-pyrrolidone]	> 200 µM	6.07	5.85	5.84	5.87	5.89	4.87	5.82
Nc1cnn(-c2ccccc2)c(=O)c1Cl [Chloridazon]	> 200 µM	5.51	5.47	5.3	6.01	5.44	5.44	5.89
CCNc1ccccc1 [N-Ethyl aniline]	> 200 µM	5.68	5.67	5.68	5.67	5.52	5.56	5.67
CNC(=O)O/N=C/C(C)(C)SC [Aldicarb]	> 200 µM	5.86	5.88	5.74	5.74	5.55	5.25	5.75
Cc1nc(N(C)C)nc(OC(=O)N(C)C)c1C [Pirimicarb]	> 200 µM	5.83	5.88	6.03	5.99	6.32	5.99	5.96
CCCCCC(=O)O [Hexanoic acid]	> 200 µM	5.99	5.88	5.83	5.84	5.83	5.87	5.79
Cc1ccc(C(C)C)c(O)c1 [Thymol]	> 200 µM	5.92	5.82	5.66	5.65	5.67	5.51	5.72
CCCCC(CC)C(=O)O (stereo not drawn) [2-Ethylhexanoic acid]	> 200 µM	5.7	5.88	5.79	5.81	5.76	5.7	6.12
CNC(=O)/C=C(\C)OP(=O)(OC)OC [Monocrotophos]	> 200 µM	5.81	5.76	5.74	5.78	5.79	5.77	6.07

SMILES	lowest effective concentration [1]	mean nematode size ln(EXT) (ln) ([2]; 0.5 µM)	mean nematode size ln(EXT) (ln) ([2]; 1 µM)	mean nematode size ln(EXT) (ln) ([2]; 5 µM)	mean nematode size ln(EXT) (ln) ([2]; 10 µM)	mean nematode size ln(EXT) (ln) ([2]; 50 µM)	mean nematode size ln(EXT) (ln) ([2]; 100 µM)	mean nematode size ln(EXT) (ln) ([2]; 200 µM)
CC(C)=CCC/C(C)=C/CO [Geraniol]	> 200 µM	5.92	5.94	5.89	6.03	5.99	6.04	5.72
Cc1ccccc1N [2-Methylbenzenamine]	> 200 µM	5.79	5.87	5.76	5.89	5.91	5.73	5.89
Cc1cc(C)cc(C)c1 [1,3,5-Trimethylbenzene]	> 200 µM	5.85	5.84	5.83	5.9	5.89	5.99	5.72
CCO[Si](CCCNC(N)=O)(OCC)OCC [3-Ureidopropyltriethoxysilane]	> 200 µM	5.84	5.83	5.84	5.8	5.74	5.63	5.84
CCCC(=O)OCC [Ethyl butyrate]	> 200 µM	5.9	5.93	5.96	6.03	5.94	5.91	5.82
c1nc[nH]n1 [1H-1,2,4-Triazole]	> 200 µM	6.09	6.11	6	6.04	6.04	6.02	5.74
CCCC(CCC)C(=O)O [Valproic Acid]	> 200 µM	5.81	5.92	6.12	6.03	6.06	6.03	5.91
COc1ccc(C)cc1N [p-Cresidine]	> 200 µM	5.84	5.85	5.84	5.83	5.85	5.89	5.83
CCOC(N)=O [Urethane (ethyl carbamate)]	> 200 µM	5.96	5.93	5.97	6	5.95	5.91	5.97
O=C(O)Cc1ccccc1Nc1c(Cl)cccc1Cl [Diclofenac sodium salt]	> 200 µM	5.93	5.95	5.92	5.99	5.92	5.9	5.83
COCCOCCOC [Bis(2-methoxyethyl) ether]	> 200 µM	5.88	5.82	5.78	5.69	5.85	5.83	5.8
CC(C)(O)c1ccc(CNC(=O)c2cccnc2Oc2ccc3nonc3c2)cc1	> 200 µM	5.94	5.81	5.9	5.71	5.92	5.81	5.8
CC(=O)C(C)=CC1C(C)=CCCC1(C)C (stereo not drawn)	> 200 µM	5.84	5.8	5.9	5.86	5.84	5.93	5.79
C[N+]1(C)CCCCC1 [Mepiquat chloride]	> 200 µM	5.73	5.8	6	5.91	5.96	6.13	5.9
OCC1CO1 (stereo not drawn) [Glycidol]	> 200 µM	5.87	5.79	5.81	5.79	5.78	5.49	5.83
CC(C)NCC(O)c1ccc(O)c(O)c1 (stereo not drawn) [Isoprenaline hydrochloride]	> 200 µM	5.94	5.97	5.91	5.94	5.95	5.54	5.84
CCOCCOCCOCCO [2-[2-(2-Ethoxyethoxy)ethoxy]ethanol]	> 200 µM	5.96	5.89	5.95	5.94	5.91	5.9	5.83
C1N2CN3CN1CN(C2)C3 [Hexamethylenetetramine]	5 µM	5.69	5.77	5.6	5.54	5.51	5.41	5.6
